Results as given in patent publication US12435059B2, “AMP-activated protein kinase inhibitors and methods of making and using the same” (The Regents of the University of Colorado, priority 2019, dated 2025).
Like-named read-outs stand apart in the source and are kept apart here.

Tests used:
Assay in all cases: biochemical
Type in all cases: binding
[1] = target: 468 kinases (Homo sapiens, UniProt O75914); details: PAK3; read-out: % Inhibition @ 100 nM
[2] = target: 468 kinases (Homo sapiens, UniProt Q9BYP7); details: WNK3; read-out: % Inhibition @ 100 nM
[3] = target: 468 kinases (Homo sapiens, UniProt Q13705); details: ACVR2B; read-out: % Inhibition @ 100 nM
468 kinases (Homo sapiens, UniProt Q13705), sequence (Q13705 19-512 limits assumed): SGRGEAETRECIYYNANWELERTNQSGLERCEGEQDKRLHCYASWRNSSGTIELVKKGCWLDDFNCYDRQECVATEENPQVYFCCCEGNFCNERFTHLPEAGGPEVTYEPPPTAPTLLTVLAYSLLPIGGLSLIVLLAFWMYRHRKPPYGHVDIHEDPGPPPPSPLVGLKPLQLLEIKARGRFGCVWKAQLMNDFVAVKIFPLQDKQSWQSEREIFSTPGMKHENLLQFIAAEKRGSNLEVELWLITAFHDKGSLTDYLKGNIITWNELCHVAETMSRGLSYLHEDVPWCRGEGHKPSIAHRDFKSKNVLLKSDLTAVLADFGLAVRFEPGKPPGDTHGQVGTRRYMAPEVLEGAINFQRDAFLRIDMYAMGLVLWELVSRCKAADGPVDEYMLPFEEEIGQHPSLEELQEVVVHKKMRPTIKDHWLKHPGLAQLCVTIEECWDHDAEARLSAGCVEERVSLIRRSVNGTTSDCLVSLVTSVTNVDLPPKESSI

[4] = target: 468 kinases (Homo sapiens, UniProt O15197); details: EPHB6; read-out: % Inhibition @ 100 nM
468 kinases (Homo sapiens, UniProt O15197), sequence (O15197 32-1021 limits assumed): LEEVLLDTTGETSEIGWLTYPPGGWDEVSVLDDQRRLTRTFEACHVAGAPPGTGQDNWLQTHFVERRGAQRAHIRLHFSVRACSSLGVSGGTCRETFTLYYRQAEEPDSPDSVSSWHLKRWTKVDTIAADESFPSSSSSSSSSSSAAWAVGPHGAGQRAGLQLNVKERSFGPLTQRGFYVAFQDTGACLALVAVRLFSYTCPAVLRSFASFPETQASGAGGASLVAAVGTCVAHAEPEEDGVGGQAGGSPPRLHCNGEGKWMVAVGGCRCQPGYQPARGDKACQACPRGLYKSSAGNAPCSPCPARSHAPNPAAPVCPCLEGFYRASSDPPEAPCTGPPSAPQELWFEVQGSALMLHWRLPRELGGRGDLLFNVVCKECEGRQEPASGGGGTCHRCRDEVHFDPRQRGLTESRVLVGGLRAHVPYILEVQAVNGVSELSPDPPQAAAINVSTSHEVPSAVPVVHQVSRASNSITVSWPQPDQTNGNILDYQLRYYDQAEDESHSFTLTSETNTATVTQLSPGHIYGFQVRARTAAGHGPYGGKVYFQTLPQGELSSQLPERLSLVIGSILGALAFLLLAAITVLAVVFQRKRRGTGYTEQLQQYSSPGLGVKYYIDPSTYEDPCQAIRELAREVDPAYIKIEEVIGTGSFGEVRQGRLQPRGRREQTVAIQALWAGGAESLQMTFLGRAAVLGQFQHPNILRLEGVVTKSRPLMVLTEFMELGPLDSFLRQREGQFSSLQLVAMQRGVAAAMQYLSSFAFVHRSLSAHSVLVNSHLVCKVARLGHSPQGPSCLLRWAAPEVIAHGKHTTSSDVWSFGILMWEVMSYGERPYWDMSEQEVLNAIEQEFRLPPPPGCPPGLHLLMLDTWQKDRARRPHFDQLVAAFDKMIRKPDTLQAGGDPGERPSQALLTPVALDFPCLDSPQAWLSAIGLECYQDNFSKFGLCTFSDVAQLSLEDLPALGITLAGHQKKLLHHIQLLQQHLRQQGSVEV

[5] = target: 468 kinases (Homo sapiens, UniProt Q9P2K8, S808G); details: GCN2(Kin.Dom.2,S808G); read-out: % Inhibition @ 100 nM
[6] = target: 468 kinases (Homo sapiens, UniProt P00519, T315I); details: read-out: % Inhibition @ 100 nM
[7] = target: 468 kinases (Homo sapiens, UniProt Q15835); details: GRK1; read-out: % Inhibition @ 100 nM
[8] = target: 468 kinases (Homo sapiens, UniProt Q13554); details: CAMK2B; read-out: % Inhibition @ 100 nM
[9] = target: 468 kinases (Homo sapiens, UniProt P06241); details: FYN; read-out: % Inhibition @ 100 nM
468 kinases (Homo sapiens, UniProt P06241), sequence (P06241 2-537 limits assumed): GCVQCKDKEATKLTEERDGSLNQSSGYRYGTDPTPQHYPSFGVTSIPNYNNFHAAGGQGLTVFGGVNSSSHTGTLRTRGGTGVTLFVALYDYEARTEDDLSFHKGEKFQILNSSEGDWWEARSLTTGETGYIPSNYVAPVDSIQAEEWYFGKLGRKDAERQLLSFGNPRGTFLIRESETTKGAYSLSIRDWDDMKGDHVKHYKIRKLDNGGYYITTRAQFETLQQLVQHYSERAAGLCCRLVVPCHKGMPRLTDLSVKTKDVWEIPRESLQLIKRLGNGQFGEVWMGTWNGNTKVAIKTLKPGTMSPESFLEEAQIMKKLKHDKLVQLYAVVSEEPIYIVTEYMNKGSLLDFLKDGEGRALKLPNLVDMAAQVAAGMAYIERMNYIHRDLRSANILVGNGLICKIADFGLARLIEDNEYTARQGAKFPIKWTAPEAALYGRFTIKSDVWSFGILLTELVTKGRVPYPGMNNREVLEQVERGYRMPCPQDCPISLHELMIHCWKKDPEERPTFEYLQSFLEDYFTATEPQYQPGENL

[10] = target: 468 kinases (Homo sapiens, UniProt Q99640); details: PKMYT1; read-out: % Inhibition @ 100 nM
[11] = target: 468 kinases (Homo sapiens, UniProt P35590); details: TIEI; read-out: % Inhibition @ 100 nM
[12] = target: 468 kinases (Homo sapiens, UniProt P36888, D835V); details: FLT3(D835V); read-out: % Inhibition @ 100 nM
[13] = target: 468 kinases (Homo sapiens, UniProt P00533, DEL752-759); details: EGFR(S752-1759del); read-out: % Inhibition @ 100 nM
[14] = target: 468 kinases (Homo sapiens, UniProt P45984); details: JNK2; read-out: % Inhibition @ 100 nM
[15] = target: 468 kinases (Homo sapiens, UniProt Q13464); details: ROCK1; read-out: % Inhibition @ 100 nM
468 kinases (Homo sapiens, UniProt Q13464), sequence (Q13464 2-1354 limits assumed): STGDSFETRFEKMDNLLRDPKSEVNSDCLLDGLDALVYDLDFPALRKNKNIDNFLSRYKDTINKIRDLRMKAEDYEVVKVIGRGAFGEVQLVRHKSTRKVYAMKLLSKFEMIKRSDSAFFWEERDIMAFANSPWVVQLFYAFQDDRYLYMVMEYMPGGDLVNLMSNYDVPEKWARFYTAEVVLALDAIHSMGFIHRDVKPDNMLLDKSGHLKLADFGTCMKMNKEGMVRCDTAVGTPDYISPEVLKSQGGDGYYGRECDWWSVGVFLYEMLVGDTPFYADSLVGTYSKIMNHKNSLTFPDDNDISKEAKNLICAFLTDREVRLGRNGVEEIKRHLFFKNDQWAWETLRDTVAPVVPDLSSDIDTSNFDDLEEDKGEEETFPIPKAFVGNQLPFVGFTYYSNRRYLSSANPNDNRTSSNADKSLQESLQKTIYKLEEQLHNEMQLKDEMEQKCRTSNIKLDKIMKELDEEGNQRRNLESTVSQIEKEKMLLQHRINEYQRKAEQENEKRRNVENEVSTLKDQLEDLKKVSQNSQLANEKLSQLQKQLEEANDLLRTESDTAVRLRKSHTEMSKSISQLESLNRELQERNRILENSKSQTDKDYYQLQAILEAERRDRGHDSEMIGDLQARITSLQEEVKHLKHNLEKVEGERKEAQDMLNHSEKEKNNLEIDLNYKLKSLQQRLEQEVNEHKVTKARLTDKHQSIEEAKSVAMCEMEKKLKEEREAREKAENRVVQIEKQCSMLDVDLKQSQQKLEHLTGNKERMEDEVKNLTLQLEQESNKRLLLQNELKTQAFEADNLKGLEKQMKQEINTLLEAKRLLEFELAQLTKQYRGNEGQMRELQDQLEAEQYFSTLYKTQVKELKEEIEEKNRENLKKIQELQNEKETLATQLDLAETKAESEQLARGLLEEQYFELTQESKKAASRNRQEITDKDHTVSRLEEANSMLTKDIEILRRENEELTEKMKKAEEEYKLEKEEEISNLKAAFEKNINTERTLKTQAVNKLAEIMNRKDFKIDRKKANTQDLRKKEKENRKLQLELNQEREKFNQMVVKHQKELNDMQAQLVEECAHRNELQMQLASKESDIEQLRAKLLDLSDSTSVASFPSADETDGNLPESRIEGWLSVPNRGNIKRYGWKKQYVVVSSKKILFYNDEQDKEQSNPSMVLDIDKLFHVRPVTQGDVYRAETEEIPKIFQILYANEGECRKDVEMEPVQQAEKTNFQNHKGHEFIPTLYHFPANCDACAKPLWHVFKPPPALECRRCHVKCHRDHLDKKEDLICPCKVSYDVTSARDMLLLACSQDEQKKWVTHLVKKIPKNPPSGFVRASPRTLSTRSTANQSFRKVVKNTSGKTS

[16] = target: 468 kinases (Homo sapiens, UniProt Q00537); details: PCTK2; read-out: % Inhibition @ 100 nM
[17] = target: 468 kinases (Homo sapiens, UniProt Q9Y616); details: IRAK3; read-out: % Inhibition @ 100 nM
[18] = target: 468 kinases (Homo sapiens, UniProt O15264); details: p38-delta; read-out: % Inhibition @ 100 nM
[19] = target: 468 kinases (Homo sapiens, UniProt Q8TF76); details: HASPIN; read-out: % Inhibition @ 100 nM
[20] = target: 468 kinases (Homo sapiens, UniProt O76039); details: CDKL5; read-out: % Inhibition @ 100 nM
[21] = target: 468 kinases (Homo sapiens, UniProt P68400); details: CSNK2A1; read-out: % Inhibition @ 100 nM
[22] = target: 468 kinases (Homo sapiens, UniProt Q15418); details: read-out: % Inhibition @ 100 nM
[23] = target: 468 kinases (Homo sapiens, UniProt P42336, I800L); details: PIK3CA(I800L); read-out: % Inhibition @ 100 nM
[24] = target: 468 kinases (Homo sapiens, UniProt Q9UQM7); details: CAMK2A; read-out: % Inhibition @ 100 nM
[25] = target: 468 kinases (Homo sapiens, UniProt O14730); details: RIOK3; read-out: % Inhibition @ 100 nM
[26] = target: 468 kinases (Homo sapiens, UniProt P23443); details: S6K1; read-out: % Inhibition @ 100 nM
[27] = target: 468 kinases (Homo sapiens, UniProt Q9Y2H9); details: MAST1; read-out: % Inhibition @ 100 nM
[28] = target: 468 kinases (Homo sapiens, UniProt Q8NEB9); details: VPS34; read-out: % Inhibition @ 100 nM
[29] = target: 468 kinases (Homo sapiens, UniProt P00533, L858R/T790M); details: EGFR(L858R,T790M); read-out: % Inhibition @ 100 nM
468 kinases (Homo sapiens, UniProt P00533, L858R/T790M), sequence (P00533 25-1210 T790M/L858R limits assumed): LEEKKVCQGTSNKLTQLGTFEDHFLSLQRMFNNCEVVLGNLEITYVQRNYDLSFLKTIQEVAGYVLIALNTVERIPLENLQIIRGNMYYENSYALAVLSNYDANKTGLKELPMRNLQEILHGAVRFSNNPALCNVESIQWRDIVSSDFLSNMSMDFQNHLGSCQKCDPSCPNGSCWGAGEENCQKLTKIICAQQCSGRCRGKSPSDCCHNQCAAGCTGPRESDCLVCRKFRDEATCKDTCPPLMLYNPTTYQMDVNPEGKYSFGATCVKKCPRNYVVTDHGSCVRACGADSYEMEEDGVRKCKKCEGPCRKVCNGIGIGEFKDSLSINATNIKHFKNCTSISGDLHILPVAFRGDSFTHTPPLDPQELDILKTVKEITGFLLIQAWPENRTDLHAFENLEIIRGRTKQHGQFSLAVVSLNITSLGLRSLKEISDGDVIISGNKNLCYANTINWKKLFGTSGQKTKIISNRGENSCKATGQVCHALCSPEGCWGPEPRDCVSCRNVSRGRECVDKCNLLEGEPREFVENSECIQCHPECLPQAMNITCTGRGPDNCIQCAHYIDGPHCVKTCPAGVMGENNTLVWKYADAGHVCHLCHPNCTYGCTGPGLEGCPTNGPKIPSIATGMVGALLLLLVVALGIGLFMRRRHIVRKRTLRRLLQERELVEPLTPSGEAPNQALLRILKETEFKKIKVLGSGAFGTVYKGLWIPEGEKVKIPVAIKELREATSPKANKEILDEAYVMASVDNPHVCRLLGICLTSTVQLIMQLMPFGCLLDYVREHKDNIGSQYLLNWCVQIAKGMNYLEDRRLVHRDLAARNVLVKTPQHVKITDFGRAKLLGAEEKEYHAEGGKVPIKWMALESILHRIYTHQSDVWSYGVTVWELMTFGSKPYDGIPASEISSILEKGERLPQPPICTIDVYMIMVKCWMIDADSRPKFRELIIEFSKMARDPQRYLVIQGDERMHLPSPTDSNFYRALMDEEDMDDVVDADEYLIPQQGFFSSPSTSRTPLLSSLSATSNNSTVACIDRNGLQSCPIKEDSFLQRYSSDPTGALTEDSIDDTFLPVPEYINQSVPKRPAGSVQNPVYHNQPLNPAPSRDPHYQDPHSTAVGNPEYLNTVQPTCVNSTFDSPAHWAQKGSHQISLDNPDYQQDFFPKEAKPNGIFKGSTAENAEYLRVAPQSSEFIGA

[30] = target: 468 kinases (Homo sapiens, UniProt Q9H093); details: SNARK; read-out: % Inhibition @ 100 nM
[31] = target: 468 kinases (Homo sapiens, UniProt P27037); details: ACVR2A; read-out: % Inhibition @ 100 nM
468 kinases (Homo sapiens, UniProt P27037), sequence (P27037 20-513 limits assumed): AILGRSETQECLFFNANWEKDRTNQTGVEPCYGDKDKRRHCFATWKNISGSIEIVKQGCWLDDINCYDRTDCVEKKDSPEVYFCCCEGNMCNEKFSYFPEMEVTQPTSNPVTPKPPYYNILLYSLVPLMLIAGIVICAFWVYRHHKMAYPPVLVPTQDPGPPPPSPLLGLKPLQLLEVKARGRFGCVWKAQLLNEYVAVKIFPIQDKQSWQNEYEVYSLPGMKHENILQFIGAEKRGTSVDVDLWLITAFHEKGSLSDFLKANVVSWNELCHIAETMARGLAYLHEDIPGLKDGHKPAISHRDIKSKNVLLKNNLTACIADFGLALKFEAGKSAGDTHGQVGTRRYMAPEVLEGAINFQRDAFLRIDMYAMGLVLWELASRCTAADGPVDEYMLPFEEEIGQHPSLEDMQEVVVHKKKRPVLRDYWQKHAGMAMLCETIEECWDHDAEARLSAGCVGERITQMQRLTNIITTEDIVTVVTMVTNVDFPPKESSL

[32] = target: 468 kinases (Homo sapiens, UniProt P49841); details: GSK3B; read-out: % Inhibition @ 100 nM

## CCN(CC)CCNC(=O)c1c(C)[nH]c(/C=C2\C(=O)Nc3ccc(CCO)cc32)c1C [Compound No. 10, (Z)—N-(2-(Diethylamino)ethyl)-5-((5-(2-hydroxyethyl)-2-oxoindolin-3-ylidene)methyl)-2,4-dimethyl-1H-pyrrole-3-carboxamide]
[1]
  inhibition at 0.1 µM: 36%
[2]
  inhibition at 0.1 µM: 9%
[3]
  inhibition at 0.1 µM: 1%
[4]
  inhibition at 0.1 µM: 0%
[5]
  inhibition at 0.1 µM: 28%
[6]; ABL1 (T3151)-nonphosphorylated
  inhibition at 0.1 µM: 56%
[6]; ABL1 (T3151)-phosphorylated
  inhibition at 0.1 µM: 91.8%
[7]
  inhibition at 0.1 µM: 39%
[8]
  inhibition at 0.1 µM: 0%
[9]
  inhibition at 0.1 µM: 0%
[10]
  inhibition at 0.1 µM: 19%
[11]
  inhibition at 0.1 µM: 2%
[12]
  inhibition at 0.1 µM: 100%
[13]
  inhibition at 0.1 µM: 14%
[14]
  inhibition at 0.1 µM: 0%
[15]
  inhibition at 0.1 µM: 4%
[16]
  inhibition at 0.1 µM: 0%
[17]
  inhibition at 0.1 µM: 0%
[18]
  inhibition at 0.1 µM: 0%
[19]
  inhibition at 0.1 µM: 59%
[20]
  inhibition at 0.1 µM: 0%
[21]
  inhibition at 0.1 µM: 0%
[22]; RSK1(Kin.Dom.1-N-terminal)
  inhibition at 0.1 µM: 4%
[22]; RSK1(Kin.Dom.2-C-terminal)
  inhibition at 0.1 µM: 0%
[23]
  inhibition at 0.1 µM: 41%
[24]
  inhibition at 0.1 µM: 6%
[25]
  inhibition at 0.1 µM: 93.9%
[26]
  inhibition at 0.1 µM: 37%
[27]
  inhibition at 0.1 µM: 40%
[28]
  inhibition at 0.1 µM: 25%
[29]
  inhibition at 0.1 µM: 0%
[30]
  inhibition at 0.1 µM: 80%
[31]
  inhibition at 0.1 µM: 10%
[32]
  inhibition at 0.1 µM: 0%

## CCN(CC)CCNC(=O)c1c(C)[nH]c(/C=C2\C(=O)Nc3ccc(CCC(N)=O)cc32)c1C [Compound No. 16, (Z)-5-((5-(3-Amino-3-oxopropyl)-2-oxoindolin-3-ylidene)methyl)-N-(2-(diethylamino)ethyl)-2,4-dimethyl-1H-pyrrole-3-carboxamide]
[1]
  inhibition at 0.1 µM: 13%
[2]
  inhibition at 0.1 µM: 7%
[3]
  inhibition at 0.1 µM: 12%
[4]
  inhibition at 0.1 µM: 34%
[5]
  inhibition at 0.1 µM: 0%
[6]; ABL1 (T3151)-nonphosphorylated
  inhibition at 0.1 µM: 61%
[6]; ABL1 (T3151)-phosphorylated
  inhibition at 0.1 µM: 86%
[7]
  inhibition at 0.1 µM: 37%
[8]
  inhibition at 0.1 µM: 10%
[9]
  inhibition at 0.1 µM: 95%
[10]
  inhibition at 0.1 µM: 18%
[11]
  inhibition at 0.1 µM: 14%
[12]
  inhibition at 0.1 µM: 100%
[13]
  inhibition at 0.1 µM: 19%
[14]
  inhibition at 0.1 µM: 32%
[15]
  inhibition at 0.1 µM: 53%
[16]
  inhibition at 0.1 µM: 17%
[17]
  inhibition at 0.1 µM: 100%
[18]
  inhibition at 0.1 µM: 0%
[19]
  inhibition at 0.1 µM: 68%
[20]
  inhibition at 0.1 µM: 5%
[21]
  inhibition at 0.1 µM: 78%
[22]; RSK1(Kin.Dom.1-N-terminal)
  inhibition at 0.1 µM: 20%
[22]; RSK1(Kin.Dom.2-C-terminal)
  inhibition at 0.1 µM: 30%
[23]
  inhibition at 0.1 µM: 20%
[24]
  inhibition at 0.1 µM: 45%
[25]
  inhibition at 0.1 µM: 100%
[26]
  inhibition at 0.1 µM: 33%
[27]
  inhibition at 0.1 µM: 30%
[28]
  inhibition at 0.1 µM: 46%
[29]
  inhibition at 0.1 µM: 18%
[30]
  inhibition at 0.1 µM: 81%
[31]
  inhibition at 0.1 µM: 18%
[32]
  inhibition at 0.1 µM: 36%
